According to ChEMBL document CHEMBL1148862, “Evaluation of the anti-hepatitis C virus effect of novel potent, selective, and orally bioavailable JNK and VEGFR kinase inhibitors” (Bioorg Med Chem Lett, 2007):

How the values were obtained:
[1] = Cytotoxicity against Huh7 cells by luciferase assay; assay type: cell-based, Huh-7; conditions: human
[2] = Cytotoxicity against MT4 cells by luciferase assay; assay type: cell-based; conditions: human
Hepatitis C virus = assay: Antiviral activity against HCV in Huh7-Rep cells by luciferase assay; assay type: functional, organism-based, Hepacivirus hominis

Structure (SMILES) | CC50 [1] | CC50 [2] | EC50 (Hepatitis C virus)
COc1cnc(-c2cc(Cl)ccc2F)nc1Nc1ccncc1C(=O)NCCNCCO | > 32 µM | > 32 µM | 0.85 µM
COc1cnc(-c2cc(Cl)ccc2F)nc1Nc1ccncc1C(=O)NCCCN1CCCCC1C (stereo not given) | 3.6 µM | 3.3 µM | 0.55 µM
CN(c1ccccc1)c1nc(-c2cc(Br)ccc2F)nc2nccnc12 | > 32 µM | > 32 µM | 1.98 µM
COc1cnc(-c2cc(Cl)ccc2F)nc1Nc1ccncc1C(=O)NCCN | 5.5 µM | 4.7 µM | 3.6 µM
COc1cnc(-c2cc(Cl)ccc2F)nc1Nc1ccncc1C(=O)NC[C@H]1CCCO1 | > 32 µM | > 32 µM | 2.6 µM
CCc1cnccc1Nc1nc(-c2cc(Cl)ccc2F)nc2nccnc12 | > 32 µM | > 32 µM | 0.71 µM
COc1cnc(-c2cc(Cl)ccc2F)nc1Nc1ccncc1C(=O)NCCCN(C)C | 15.8 µM | 5 µM | 0.59 µM
COc1cnc(-c2cc(Cl)ccc2F)nc1Nc1ccncc1C(=O)NCCNCC(C)O (stereo not given) | > 32 µM | > 32 µM | 9.6 µM
COc1cnc(-c2cc(Cl)ccc2F)nc1Nc1ccncc1C(=O)NCC(F)(F)F | > 32 µM | > 32 µM | 1.2 µM
FC(F)(F)c1cccc(-c2nc(Nc3ccncc3)c3nccnc3n2)c1 | > 25 µM | > 25 µM | 1.91 µM
CN(c1ccncc1)c1nc(-c2cc(Br)ccc2F)nc2nccnc12 | > 32 µM | > 32 µM | 3.65 µM
Fc1ccc(Br)cc1-c1nc(Nc2ccncc2)c2nccnc2n1 | > 32 µM | > 32 µM | 0.35 µM
Fc1ccc(Cl)cc1-c1nc(Nc2ccncc2)c2nccnc2n1 | > 25 µM | > 25 µM | 0.89 µM
Fc1ccc(Br)cc1-c1nc(Nc2ccccc2)c2nccnc2n1 | > 32 µM | > 32 µM | 4 µM
Cc1cnccc1Nc1nc(-c2cc(Br)ccc2F)nc2nccnc12 | > 32 µM | > 32 µM | 0.8 µM
